Earlier results as cited in patent US20140220138A1, “ENHANCED NITRIC OXIDE DELIVERY AND USES THEREOF” (Albert Einstein College of Medicine of Yeshiva University, priority 2011, published 2014).
Converted amounts (≈) assume the structure as drawn.

Compound	reduction in Bacillus viability (Bacillus subtilis; 20-25 μM NO repetitively added over time)	viability after exposure to NO (Bacillus subtilis; exposure to either 50 or 200 μM NO)	MIC90 (E. coli (ATCC 25922))
[N]=O [NO, nitric oxide]	100 fold	no significant loss in viability	–
N[C@@H](CCC(=O)N[C@@H](CSN=O)C(=O)NCC(=O)O)C(=O)O [GSNO, S-nitrosoglutathione]	–	–	5 mM (≈ 1680 µg/mL)
